Measurements from patent publication US20050148607A1, “Preventives and/or remedies for subjects with the expression or activation of her2 and/or egfr” (priority 2002, published 2005).

Assays:
[1] = test system: EGFR overexpression cancer A431; settings: EGFR overexpression cancer A431, literature; cited from earlier work
[2] = test system: human rectal cancer LS174T (EGFR negative, Her2 positive); assay: In vivo antitumor effects, LS174T xenograft in nude mice; settings: Balb/c nude mice, final day
Description: (§1) Cultured human cancer cells suspended in PBS were implanted subcutaneously in the back of female Balb/c nude mice (Balb/cAJcl-nu mouse, CLEA Japan Inc., 5-week-old when received) at 5×10^6/100 μl. When about 7 days later and the average volume of the implanted tumors almost reached 100 mm^3, the mice were allotted by 4 mice per group such that the average tumor volume of each group became equal.
(§2) For the tumor volume, the longer diameter and the shorter diameter were measured with calipers and calculated as [(shorter diameter)^2×(longer diameter/2)]=tumor volume [mm^3]. A pharmaceutical agent was administered by oral gavage once a day for 14 consecutively days from the day of allottment, and the pharmaceutical agent was not administered to the mice of the control group. The relative tumor growth rate was calculated based on the tumor volume on the administration start day for the pharmaceutical agent treatment group against the control group as rate 1. The antitumor effects are shown in % control. The % control was calculated by the following formula. % control=[(average relative tumor growth rate of pharmaceutical agent treatment group on the final day-1)/(average relative tumor growth rate of control group on the final day-1)]×100

[3] = test system: human pancreatic cancer HPAC (both EGFR, Her2 positive); assay: In vivo antitumor effects, HPAC xenograft in nude mice; settings: Balb/c nude mice, final day
Description: as §1, §2

[4] = test system: human lung cancer NCI-H520 (both EGFR, Her2 negative); assay: In vivo antitumor effects, NCI-H520 xenograft in nude mice; settings: Balb/c nude mice, final day
Description: as §1, §2

[5] = test system: human cervical cancer ME180 (EGFR positive, Her2 negative); assay: In vivo antitumor effects, ME180 xenograft in nude mice; settings: Balb/c nude mice, final day
Description: as §1, §2

erbB3 = settings: MDA-MB-453 cells stimulated with Heregulin, literature; cited from earlier work
[6] = 10 mg/kg oral once a day for 14 days
[7] = 30 mg/kg oral once a day for 14 days

Row | Compound | in vivo antitumor effect [1] | % control [2, 6] [% control] | % control [2, 7] [% control] | % control [3, 6] [% control] | % control [3, 7] [% control] | % control [4, 6] [% control] | % control [4, 7] [% control] | % control [5, 6] [% control] | % control [5, 7] [% control] | inhibition of tyrosine phosphorylation of erbB3 (erbB3)
1 | C=CC(=O)Nc1cc2c(Nc3ccc(F)c(Cl)c3)ncnc2cc1OCCCN1CCOCC1 [PD, N-[4-(3-chloro-4-fluorophenyl)amino-7-[3-(4-morpholinyl)propoxy]quinazolin-6-yl]acrylamide] | shows an in vivo antitumor effect | 56 | 34 | 39 | 11 |  |  |  |  | 
2 | C=CC(=O)Nc1cc2c(Nc3ccc(F)c(Cl)c3)ncnc2cc1OCCCN1CCOCC1 [PD.2HCl] |  |  |  |  |  | 95 | 87 | 25 | 17 | inhibit tyrosine phosphorylation
